Key:
[1] = test system: Ramos cells; experiment: Inhibition of B-cell Activation - B cell FLIPR assay in Ramos cells; format: cell-based; details: Homo sapiens, 0.5 h, intracellular calcium increase stimulated by 10 μg/mL anti-IgM, compounds incubated 30 min at RT
From the text: Inhibition of B-cell Activation—B cell FLIPR assay in Ramos cells
The B cell FLIPR assay is a cell based functional method of determining the effect of potential inhibitors of the intracellular calcium increase from stimulation by an anti-IgM antibody. Ramos cells (human Burkitt's lymphoma cell line. ATCC-No. CRL-1596) were cultivated in Growth Media (described below). One day prior to assay, Ramos cells were resuspended in fresh growth media (same as above) and set at a concentration of 0.5×10^6/mL in tissue culture flasks. On day of assay, cells are counted and set at a concentration of 1×10^6/mL1 in growth media supplemented with 1 μM FLUO-3AM(TefLabs Cat-No. 0116, prepared in anhydrous DMSO and 10% Pluronic acid) in a tissue culture flask, and incubated at 37° C. (4% CO2) for one h. To remove extracellular dye, cells were collected by centrifugation (5 min, 1000 rpm), resuspended in FLIPR buffer (described below) at 1×10^6 cells/mL and then dispensed into 96-well poly-D-lysine coated black/clear plates (BD Cat-No. 356692) at 1×10^5 cells per well. Test compounds were added at various concentrations ranging from 100 μM to 0.03 μM (7 concentrations, details below), and allowed to incubate with cells for 30 min at RT. Ramos cell Ca^2+ signaling was stimulated by the addition of 10 μg/mL anti-IgM (Southern Biotech, Cat-No. 2020-01) and measured on a FLIPR (Molecular Devices, captures images of 96 well plates using a CCD camera with an argon laser at 480nm excitation).
Growth Medium: RPMI 1640 medium with L-glutamine (Invitrogen, Cat-No. 61870-010), 10% Fetal Bovine Serum (FBS, Summit Biotechnology Cat-No. FP-100-05); 1 mM Sodium Pyruvate (Invitrogen Cat. No. 11360-070).
FLIPR buffer: HBSS (Invitrogen, Cat-No. 141175-079), 2 mM CaCl2 (Sigma Cat-No. C-4901), HEPES (Invitrogen, Cat-No. 15630-080), 2.5mM Probenecid (Sigma, Cat-No. P-8761), 0.1% BSA (Sigma, Cat-No. A-7906), 11 mM Glucose (Sigma, Cat-No. G-7528)
Compound dilution details:
In order to achieve the highest final assay concentration of 100 μM, 24 μL of 10 mM compound stock solution (made in DMSO) is added directly to 576 μL of FLIPR buffer. The test compounds are diluted in FLIPR Buffer (using Biomek 2000 robotic pipettor) resulting in the following dilution scheme: vehicle, 1.00×10^−4 M, 1.00×10^−5, 3.16×10^−6, 1.00×10^−6, 3.16×10^−7, 1.00×10^−7, 3.16×10^−8.
Intracellular increases in calcium were reported using a max-min statistic (subtracting the resting baseline from the peak caused by addition of the stimulatory antibody using a Molecular Devices FLIPR control and statistic exporting software. The IC50 was determined using a non-linear curve fit (GraphPad Prism software). Representative results are in Table III.

[2] = biological target: T1, Btk enzyme (His-tagged, full-length) (Homo sapiens, UniProt Q06187); experiment: Bruton's Tyrosine Kinase (Btk) Inhibition Assay (33P filtration capture); format: biochemical; details: Bruton's tyrosine kinase Assay (Example 34), 100 μM ATP
T1 construct: 5-10 nM Btk enzyme (His-tagged, full-length); His
T1 sequence (Q06187 whole entry): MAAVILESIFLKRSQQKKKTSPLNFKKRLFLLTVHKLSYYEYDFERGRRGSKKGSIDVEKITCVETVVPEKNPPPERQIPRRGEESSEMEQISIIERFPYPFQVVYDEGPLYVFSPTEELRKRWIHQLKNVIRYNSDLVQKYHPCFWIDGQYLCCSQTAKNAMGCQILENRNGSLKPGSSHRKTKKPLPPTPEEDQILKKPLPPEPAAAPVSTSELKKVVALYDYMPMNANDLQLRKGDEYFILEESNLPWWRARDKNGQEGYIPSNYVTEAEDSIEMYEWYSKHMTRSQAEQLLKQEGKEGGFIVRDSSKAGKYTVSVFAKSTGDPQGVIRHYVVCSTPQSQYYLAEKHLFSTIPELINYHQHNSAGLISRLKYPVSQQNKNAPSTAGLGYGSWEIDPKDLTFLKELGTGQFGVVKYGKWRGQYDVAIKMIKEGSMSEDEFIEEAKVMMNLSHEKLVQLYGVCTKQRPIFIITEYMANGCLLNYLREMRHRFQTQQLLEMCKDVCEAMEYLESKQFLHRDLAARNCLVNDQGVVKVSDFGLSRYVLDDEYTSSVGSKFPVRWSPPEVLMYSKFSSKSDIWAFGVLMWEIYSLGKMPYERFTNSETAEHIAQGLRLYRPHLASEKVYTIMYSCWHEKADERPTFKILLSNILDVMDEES

SMILES | IC50 [1] | melting point | IC50 ([2]; Table I pyridazinones) | IC50 ([2]; Table II pyridinones)
Cc1c(-c2cc(Nc3ccc(C(=O)N4CCOCC4)cn3)c(=O)n(C)n2)cccc1-n1cnc2cc(C(C)(C)C)ccc2c1=O [Compound I-8, 7-tert-Butyl-3-(2-methyl-3-{1-methyl-5-[5-(morpholine-4-carbonyl)-pyridin-2-ylamino]-6-oxo-1,6-dihydro-pyridazin-3-yl}-phenyl)-3H-quinazolin-4-one] | 205 nM | 188.5 to 191 °C | 116 nM | –
COc1nccc(Nc2cc(-c3cccc(NC(=O)c4ccc(C(C)(C)C)cc4)c3C)nn(C)c2=O)n1 [Compound I-17] | 415 nM | 262 to 264 °C | 104 nM | –
Cn1nc(-c2cccc(CC(=O)NCCOC(C)(C)C)c2)cc(Nc2ccc(C(=O)N3CCOCC3)cn2)c1=O [Compound I-32] | 32 nM | 220 to 221 °C | 820 nM | –
CNC(=O)Nc1cc(-c2cccc(NC(=O)c3ccc(N(C)C)cc3)c2C)cn(C)c1=O [II-13] | 552 nM | 291 to 292 °C | – | 96 nM
CCNC(=O)Nc1cc(-c2cccc(NC(=O)c3ccc(C(C)(C)C)cc3)c2CO)cn(C)c1=O [II-56, 4-tert-Butyl-N-{3-[5-(3-ethyl-ureido)-1-methyl-6-oxo-1,6-dihydro-pyridin-3-yl]-2-hydroxymethyl-phenyl}-benzamide] | 4 nM | – | – | < 10 nM
